According to ChEMBL document CHEMBL5260852, “Long-Acting Tumor-Activated Prodrug of a TGFβR Inhibitor” (J Med Chem, 2021):
Numbered stars: 1 amine (or outer) side, 2 acyl side, 3 side chain; on linkers, the order of the positions; unused ones are H or OH. Square brackets hold non-standard residues; d marks the D form. Peptide text beside a SMILES is read from it. * marks the point of attachment. X1 = N#Cc1cnc2ccc(-c3c(-c4ccc(F)c(Cl)c4)ncn3CCOCN*)nn12; C18 diacid = O=C(O)CCCCCCCCCCCCCCCCC(=O)*; γGlu = O=C(O)[C@H](CCC(=O)[*:2])N[*:1]; PABC = O=C(OCc1ccc(N[*:1])cc1)[*:2]; Palmitoyl = CCCCCCCCCCCCCCCC(=O)*; AEEA = NCCOCCOCC(=O)O

Key:
[1] = Prodrug conversion in tumor of C57BL/6 mouse xenografted mouse MC38 cells assessed as BMS-986260 AUC (0 to 48 hrs) at 8 mg/kg,iv and measured after 48 hrs by LC-MS/MS analysis; format: ADME, organism-based, Neoplasm, MC-38; parameters: dose 8 mg/kg, time 48 hrs, route iv; details: in vivo
[2] = Prodrug conversion in tumor of C57BL/6 mouse xenografted mouse MC38 cells assessed as BMS-986260 Cmax at 8 mg/kg,iv and measured after 48 hrs by LC-MS/MS analysis; format: ADME, organism-based, Neoplasm, MC-38; parameters: dose 8 mg/kg, time 48 hrs, route iv; details: in vivo
[3] = Prodrug conversion in heart of C57BL/6 mouse xenografted mouse MC38 cells assessed as BMS-986260 Tmax at 8 mg/kg,iv and measured after 48 hrs by LC-MS/MS analysis; format: ADME, organism-based, MC-38; details: in vivo
[4] = Prodrug conversion in tumor of C57BL/6 mouse xenografted mouse MC38 cells assessed as BMS-986260 Tmax at 8 mg/kg,iv and measured after 48 hrs by LC-MS/MS analysis; format: ADME, organism-based, Neoplasm, MC-38; details: in vivo
[5] = Prodrug conversion in C57BL/6 mouse xenografted mouse MC38 cells assessed as BMS-986260 ratio of AUC in tumor to heart at 8 mg/kg,iv and measured after 48 hrs by LC-MS/MS analysis; format: ADME, organism-based, MC-38; details: in vivo
[6] = Stability in mouse plasma assessed as parent compound remaining after 24 hrs by HPLC-MS analysis; format: ADME, cell-free; details: read-out: Stability
[7] = Drug concentration in C57BL/6 mouse plasma at 6 mg/kg,iv and measured after 24 hrs by LC-MS/MS analysis; format: ADME, organism-based
[8] = Prodrug conversion in C57BL/6 mouse xenografted mouse MC38 cells assessed as BMS-986260 ratio of AUC in heart to blood at 8 mg/kg,iv and measured after 48 hrs by LC-MS/MS analysis; format: ADME, organism-based, MC-38; details: other tissue
[9] = Stability in rat plasma assessed as parent compound remaining after 24 hrs by HPLC-MS analysis; format: ADME, cell-free; details: read-out: Stability
[10] = Prodrug conversion in blood of C57BL/6 mouse xenografted mouse MC38 cells assessed as BMS-986260 Cmax at 8 mg/kg,iv and measured after 48 hrs by LC-MS/MS analysis; format: ADME, organism-based, MC-38; parameters: time 48 hrs, dose 8 mg/kg, route iv; details: in vivo
[11] = Prodrug conversion in C57BL/6 mouse xenografted mouse MC38 cells assessed as BMS-986260 ratio of AUC in tumor to blood at 8 mg/kg,iv and measured after 48 hrs by LC-MS/MS analysis; format: ADME, organism-based, MC-38; details: tumour
[12] = Prodrug conversion in heart of C57BL/6 mouse xenografted mouse MC38 cells assessed as BMS-986260 Cmax at 8 mg/kg,iv and measured after 48 hrs by LC-MS/MS analysis; format: ADME, organism-based, MC-38; parameters: time 48 hrs, dose 8 mg/kg, route iv; details: in vivo
[13] = Prodrug conversion in blood of C57BL/6 mouse xenografted mouse MC38 cells assessed as BMS-986260 AUC (0 to 48 hrs) at 8 mg/kg,iv and measured after 48 hrs by LC-MS/MS analysis; format: ADME, organism-based, MC-38; parameters: dose 8 mg/kg, time 48 hrs, route iv; details: in vivo
[14] = AUC in C57BL/6 mouse plasma at 6 mg/kg,iv and measured upto 24 hrs by LC-MS/MS analysis; format: ADME, organism-based; parameters: dose 6 mg/kg, time < 24 hrs, route iv
[15] = Prodrug conversion in heart of C57BL/6 mouse xenografted mouse MC38 cells assessed as BMS-986260 AUC (0 to 48 hrs) at 8 mg/kg,iv and measured after 48 hrs by LC-MS/MS analysis; format: ADME, organism-based, MC-38; parameters: time 48 hrs, dose 8 mg/kg, route iv; details: in vivo
[16] = Prodrug conversion in blood of C57BL/6 mouse xenografted mouse MC38 cells assessed as BMS-986260 Tmax at 8 mg/kg,iv and measured after 48 hrs by LC-MS/MS analysis; format: ADME, organism-based, MC-38; details: in vivo
[17] = Prodrug conversion in heart of C57BL/6 mouse xenografted mouse MC38 cells assessed as BMS-986260 Cmax at 8 mg/kg,iv and measured after 72 hrs by LC-MS/MS analysis; format: ADME, organism-based, MC-38; parameters: dose 8 mg/kg, time 72 hrs, route iv; details: in vivo
[18] = Prodrug conversion in blood of C57BL/6 mouse xenografted mouse MC38 cells assessed as BMS-986260 AUC (0 to 72 hrs) at 8 mg/kg,iv and measured after 72 hrs by LC-MS/MS analysis; format: ADME, organism-based, MC-38; parameters: time 72 hrs, dose 8 mg/kg, route iv; details: in vivo
[19] = Prodrug conversion in blood of C57BL/6 mouse xenografted mouse MC38 cells assessed as BMS-986260 Tmax at 8 mg/kg,iv and measured after 72 hrs by LC-MS/MS analysis; format: ADME, organism-based, MC-38; details: in vivo
[20] = Prodrug conversion in blood of C57BL/6 mouse xenografted mouse MC38 cells assessed as BMS-986260 ratio of AUC in tumor to heart at 8 mg/kg,iv and measured after 72 hrs by LC-MS/MS analysis; format: ADME, organism-based, MC-38; details: in vivo
[21] = Prodrug conversion in heart of C57BL/6 mouse xenografted mouse MC38 cells assessed as BMS-986260 AUC (0 to 72 hrs) at 8 mg/kg,iv and measured after 72 hrs by LC-MS/MS analysis; format: ADME, organism-based, MC-38; parameters: time 72 hrs, dose 8 mg/kg, route iv; details: in vivo
[22] = Prodrug conversion in blood of C57BL/6 mouse xenografted mouse MC38 cells assessed as BMS-986260 Cmax at 8 mg/kg,iv and measured after 72 hrs by LC-MS/MS analysis; format: ADME, organism-based, MC-38; parameters: dose 8 mg/kg, time 72 hrs, route iv; details: in vivo
[23] = Prodrug conversion in tumor of C57BL/6 mouse xenografted mouse MC38 cells assessed as BMS-986260 AUC (0 to 72 hrs) at 8 mg/kg,iv and measured after 72 hrs by LC-MS/MS analysis; format: ADME, organism-based, Neoplasm, MC-38; parameters: time 72 hrs, dose 8 mg/kg, route iv; details: in vivo
[24] = Prodrug conversion in tumor of C57BL/6 mouse xenografted mouse MC38 cells assessed as BMS-986260 Tmax at 8 mg/kg,iv and measured after 72 hrs by LC-MS/MS analysis; format: ADME, organism-based, Neoplasm, MC-38; details: in vivo
[25] = Prodrug conversion in tumor of C57BL/6 mouse xenografted mouse MC38 cells assessed as BMS-986260 Cmax at 8 mg/kg,iv and measured after 72 hrs by LC-MS/MS analysis; format: ADME, organism-based, Neoplasm, MC-38; parameters: dose 8 mg/kg, time 72 hrs, route iv; details: in vivo
[26] = Prodrug conversion in C57BL/6 mouse xenografted mouse MC38 cells assessed as BMS-986260 ratio of AUC in heart to blood at 8 mg/kg,iv and measured after 72 hrs by LC-MS/MS analysis; format: ADME, organism-based, MC-38; details: other tissue
[27] = Prodrug conversion in blood of C57BL/6 mouse xenografted mouse MC38 cells assessed as BMS-986260 ratio of AUC in tumor to blood at 8 mg/kg,iv and measured after 72 hrs by LC-MS/MS analysis; format: ADME, organism-based, MC-38; details: tumour
[28] = Prodrug conversion in heart of C57BL/6 mouse xenografted mouse MC38 cells assessed as BMS-986260 Tmax at 8 mg/kg,iv and measured after 72 hrs by LC-MS/MS analysis; format: ADME, organism-based, MC-38; details: in vivo

Work on `CC(C)C[C@H](NC(=O)COCCOCCNC(=O)COCCOCCNC(=O)CC[C@H](NC(=O)CCCCCCCCCCCCCCCCC(=O)O)C(=O)O)C(=O)N[C@@H](CO)C(=O)NCC(=O)N[C@@H](CCCCN)C(=O)Nc1ccc(COC(=O)NCOCCn2cnc(-c3ccc(F)c(Cl)c3)c2-c2ccc3ncc(C#N)n3n2)cc1` ({C18 diacid-γGlu-AEEA-AEEA}-LSGK[PABC]-X1) yielded an AUC [1] of 6.6 µM·h, a Cmax [2] of 470 nM and a Tmax [3] of 8 h. For the same molecule, the Tmax [4] was 1 h, the “Ratio AUC” value [5] was 1.2 and the remaining at 24 h [6] was 79%. The concentration at 24 h [7] was > 1000 nM, the “Ratio AUC” value [8] was 1.8 and the remaining at 24 h [9] was 84%. For the same molecule, the Cmax [10] was 160 nM, the “Ratio AUC” value [11] was 2.2 and the Cmax [12] was 300 nM. It also gave an AUC [13] of 3 µM·h, an AUC at 24 h [14] of 348 µM·h and an AUC [15] of 5.4 µM·h. The Tmax [16] was 4 h.

In the case of `CC(C)C[C@H](NC(=O)COCCOCCNC(=O)CC[C@H](NC(=O)CCCCCCCCCCCCCCCCC(=O)O)C(=O)O)C(=O)N[C@@H](CO)C(=O)NCC(=O)N[C@@H](CCCCN)C(=O)Nc1ccc(COC(=O)NCOCCn2cnc(-c3ccc(F)c(Cl)c3)c2-c2ccc3ncc(C#N)n3n2)cc1` ({C18 diacid-γGlu-AEEA}-LSGK[PABC]-X1), the remaining at 24 h [6] is reported as 79%, the concentration at 24 h [7] is reported as > 1000 nM and the remaining at 24 h [9] is reported as 81%.

Molecule `CC(C)C[C@H](NC(=O)COCCOCCNC(=O)COCCOCCNC(=O)CC[C@H](NC(=O)CC[C@H](NC(=O)CC[C@H](NC(=O)CCCCCCCCCCCCCCCCC(=O)O)C(=O)O)C(=O)O)C(=O)O)C(=O)N[C@@H](CO)C(=O)NCC(=O)N[C@@H](CCCCN)C(=O)Nc1ccc(COC(=O)NCOCCn2cnc(-c3ccc(F)c(Cl)c3)c2-c2ccc3ncc(C#N)n3n2)cc1` ({C18 diacid-γGlu-γGlu-γGlu-AEEA-AEEA}-LSGK[PABC]-X1) has a Cmax [17] of 270 nM, an AUC [18] of 4.6 µM·h and a Tmax [19] of 1 h. The “Ratio AUC” value [20] was 1.6, the AUC [21] was 8.4 µM·h and the Cmax [22] was 140 nM. The AUC [23] was 13 µM·h, the remaining at 24 h [6] was 96% and the Tmax [24] was 8 h. It also gave a concentration at 24 h [7] of 5200 nM, a remaining at 24 h [9] of 93% and a Cmax [25] of 310 nM. For the same molecule, the “Ratio AUC” value [26] was 1.8, the AUC at 24 h [14] was 270 µM·h and the “Ratio AUC” value [27] was 2.8. The Tmax [28] was 8 h.

For `CC(C)C[C@H](NC(=O)CC[C@H](NC(=O)CCCCCCCCCCCCCCCCC(=O)O)C(=O)O)C(=O)N[C@@H](CO)C(=O)NCC(=O)N[C@@H](CCCCN)C(=O)Nc1ccc(COC(=O)NCOCCn2cnc(-c3ccc(F)c(Cl)c3)c2-c2ccc3ncc(C#N)n3n2)cc1` ({C18 diacid-γGlu}-LSGK[PABC]-X1), the remaining at 24 h [6] was 84%, the concentration at 24 h [7] was > 1000 nM and the remaining at 24 h [9] was 77%.

In the case of `CCCCCCCCCCCCCCCC(=O)N[C@@H](CCC(=O)N[C@@H](CC(C)C)C(=O)N[C@@H](CO)C(=O)NCC(=O)N[C@@H](CCCCN)C(=O)Nc1ccc(COC(=O)NCOCCn2cnc(-c3ccc(F)c(Cl)c3)c2-c2ccc3ncc(C#N)n3n2)cc1)C(=O)O` ({Palmitoyl-γGlu}-LSGK[PABC]-X1), the AUC at 24 h [14] is reported as 40.9 µM·h.
